Laboratory results: BindingDB's records for patent US20240174621 (Hoffmann-La Roche, 2024)

Columns and labels:
Assay in all cases: Kinase Assay
[1] = target: RAF proto-oncogene serine/threonine-protein kinase (Homo sapiens, UniProt P04049)
Text: (§1) The assay is not in detail.

[2] = target: Serine/threonine-protein kinase B-raf (Homo sapiens, UniProt P15056)
Text: as §1

[3] = target: Serine/threonine-protein kinase B-raf [V600E] (Homo sapiens, UniProt P15056, V600E)
Text: as §1

[4] = target: Tyrosine-protein kinase CSK (Homo sapiens, UniProt P41240)
Text: as §1

[5] = target: Tyrosine-protein kinase Lck (Homo sapiens, UniProt P06239)
Text: as §1

Chain of Tyrosine-protein kinase CSK (P41240 whole entry): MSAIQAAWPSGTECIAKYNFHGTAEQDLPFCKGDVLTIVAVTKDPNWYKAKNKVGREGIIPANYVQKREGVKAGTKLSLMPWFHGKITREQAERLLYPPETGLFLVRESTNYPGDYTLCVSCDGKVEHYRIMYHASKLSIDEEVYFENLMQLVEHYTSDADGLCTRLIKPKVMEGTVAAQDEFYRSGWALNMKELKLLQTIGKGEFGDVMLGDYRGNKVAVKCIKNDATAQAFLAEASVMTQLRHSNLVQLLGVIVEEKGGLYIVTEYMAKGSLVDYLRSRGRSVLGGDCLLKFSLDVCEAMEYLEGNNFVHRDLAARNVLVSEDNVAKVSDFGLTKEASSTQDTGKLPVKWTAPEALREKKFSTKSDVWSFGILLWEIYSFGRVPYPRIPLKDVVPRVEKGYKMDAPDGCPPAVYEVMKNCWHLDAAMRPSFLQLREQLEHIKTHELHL
Chain of Serine/threonine-protein kinase B-raf [V600E] (P15056 2-766 V600E limits assumed): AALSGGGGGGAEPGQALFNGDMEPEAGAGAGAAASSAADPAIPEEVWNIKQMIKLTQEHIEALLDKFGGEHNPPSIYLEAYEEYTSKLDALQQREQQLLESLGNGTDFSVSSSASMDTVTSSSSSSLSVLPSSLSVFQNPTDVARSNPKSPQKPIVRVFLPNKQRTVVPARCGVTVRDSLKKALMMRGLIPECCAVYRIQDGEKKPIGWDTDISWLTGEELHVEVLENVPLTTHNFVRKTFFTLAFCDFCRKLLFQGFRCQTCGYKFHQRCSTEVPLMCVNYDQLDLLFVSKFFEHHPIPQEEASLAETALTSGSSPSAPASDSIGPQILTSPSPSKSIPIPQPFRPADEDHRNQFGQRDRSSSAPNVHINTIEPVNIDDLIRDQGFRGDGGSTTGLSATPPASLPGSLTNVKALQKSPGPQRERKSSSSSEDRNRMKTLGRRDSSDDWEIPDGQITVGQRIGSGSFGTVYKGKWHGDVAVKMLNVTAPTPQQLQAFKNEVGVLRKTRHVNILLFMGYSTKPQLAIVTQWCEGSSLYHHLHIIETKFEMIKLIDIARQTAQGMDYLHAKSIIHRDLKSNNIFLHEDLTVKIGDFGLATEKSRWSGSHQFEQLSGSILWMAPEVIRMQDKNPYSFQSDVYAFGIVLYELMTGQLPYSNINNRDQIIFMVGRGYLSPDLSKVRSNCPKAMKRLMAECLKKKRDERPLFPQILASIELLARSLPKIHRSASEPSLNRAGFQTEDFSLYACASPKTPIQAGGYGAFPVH
Chain of Tyrosine-protein kinase Lck (P06239 whole entry): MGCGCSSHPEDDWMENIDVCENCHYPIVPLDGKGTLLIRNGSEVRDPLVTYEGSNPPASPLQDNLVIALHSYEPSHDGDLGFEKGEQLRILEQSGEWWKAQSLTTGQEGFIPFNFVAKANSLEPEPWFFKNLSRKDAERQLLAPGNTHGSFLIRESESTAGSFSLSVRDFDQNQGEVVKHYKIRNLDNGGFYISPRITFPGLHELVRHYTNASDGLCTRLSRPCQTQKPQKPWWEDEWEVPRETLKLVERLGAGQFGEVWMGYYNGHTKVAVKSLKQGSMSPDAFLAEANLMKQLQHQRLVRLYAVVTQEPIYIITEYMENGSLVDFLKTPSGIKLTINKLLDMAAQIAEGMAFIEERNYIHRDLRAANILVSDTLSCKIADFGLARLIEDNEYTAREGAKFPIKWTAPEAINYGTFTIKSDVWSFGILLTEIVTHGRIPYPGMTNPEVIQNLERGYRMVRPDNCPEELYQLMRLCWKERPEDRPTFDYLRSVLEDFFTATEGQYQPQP
Chain of Serine/threonine-protein kinase B-raf (P15056 whole entry): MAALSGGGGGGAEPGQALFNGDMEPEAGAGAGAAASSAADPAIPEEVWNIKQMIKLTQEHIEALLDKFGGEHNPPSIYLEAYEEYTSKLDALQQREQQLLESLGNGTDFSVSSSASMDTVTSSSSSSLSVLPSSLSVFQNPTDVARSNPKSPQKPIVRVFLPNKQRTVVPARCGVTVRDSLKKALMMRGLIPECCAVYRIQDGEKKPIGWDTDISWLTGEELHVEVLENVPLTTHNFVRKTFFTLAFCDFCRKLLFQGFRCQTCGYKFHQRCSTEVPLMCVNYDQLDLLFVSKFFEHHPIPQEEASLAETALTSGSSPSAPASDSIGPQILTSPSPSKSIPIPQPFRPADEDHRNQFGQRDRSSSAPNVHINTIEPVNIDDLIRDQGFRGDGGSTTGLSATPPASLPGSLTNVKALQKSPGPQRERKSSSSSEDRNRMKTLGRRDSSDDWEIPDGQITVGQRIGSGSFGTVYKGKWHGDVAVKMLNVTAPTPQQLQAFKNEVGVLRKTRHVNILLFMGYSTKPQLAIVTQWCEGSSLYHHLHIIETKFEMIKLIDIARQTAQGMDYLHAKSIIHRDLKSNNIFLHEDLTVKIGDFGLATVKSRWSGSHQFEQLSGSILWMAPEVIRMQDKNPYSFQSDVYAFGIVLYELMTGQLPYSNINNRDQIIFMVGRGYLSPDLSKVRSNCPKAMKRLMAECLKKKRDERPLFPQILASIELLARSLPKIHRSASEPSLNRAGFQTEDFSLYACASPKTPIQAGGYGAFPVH
Chain of RAF proto-oncogene serine/threonine-protein kinase (P04049 whole entry): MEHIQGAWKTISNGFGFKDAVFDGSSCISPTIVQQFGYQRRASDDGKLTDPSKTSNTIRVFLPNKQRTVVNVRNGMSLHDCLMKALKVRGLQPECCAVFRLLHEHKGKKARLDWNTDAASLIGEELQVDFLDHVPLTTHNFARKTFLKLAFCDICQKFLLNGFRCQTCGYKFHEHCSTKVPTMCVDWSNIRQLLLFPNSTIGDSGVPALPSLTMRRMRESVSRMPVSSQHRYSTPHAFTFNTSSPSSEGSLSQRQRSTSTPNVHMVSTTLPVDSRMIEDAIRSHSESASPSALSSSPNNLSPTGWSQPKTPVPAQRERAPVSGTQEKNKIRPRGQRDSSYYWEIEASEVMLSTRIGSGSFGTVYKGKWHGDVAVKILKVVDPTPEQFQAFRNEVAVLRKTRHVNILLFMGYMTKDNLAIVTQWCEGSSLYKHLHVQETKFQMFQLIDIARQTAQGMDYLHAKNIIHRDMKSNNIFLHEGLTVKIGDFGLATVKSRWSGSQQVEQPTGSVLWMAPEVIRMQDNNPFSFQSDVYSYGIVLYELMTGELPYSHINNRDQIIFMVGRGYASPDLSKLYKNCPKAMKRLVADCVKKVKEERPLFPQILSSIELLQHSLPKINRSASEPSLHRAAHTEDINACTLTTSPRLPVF

Structure (SMILES)	Kd [1]	Kd [2]	Kd [3]	Kd [4]	Kd [5]
Cn1cnc2ccc(Oc3c(Cl)ccc(NS(=O)(=O)N4CCCC4)c3C#N)cc2c1=O [US20240174621, Example AR-31]	190 nM	45.9 nM	119 nM	1210 nM	12000 nM
CN(C)S(=O)(=O)Nc1ccc(Cl)c(Oc2ccc3ncn(C)c(=O)c3c2)c1C#N [US20240174621, Example AR-30]	822 nM	174 nM	504 nM	8010 nM	10400 nM
